Laboratory results reported in paper PMC10364322, “Evaluation of chronic drug-induced electrophysiological and cytotoxic effects using human-induced pluripotent stem cell-derived cardiomyocytes (hiPSC-CMs)” (Frontiers in Pharmacology, 2023).
Read-outs that look alike come from different tables or passages of the source.

What was measured:
[1] = system: hiPSC-CMs (iCell-Cardiomyocytes^2)
Procedure: (§1) Cells were seeded according to the instructions of the cell provider, in fibronectin-coated 48-well MEA plates (Axion Cytoview Plates, M768-tMEA-48B) at a density suited to form a monolayer (i.e., 50 K/well) and maintained in culture in a stage incubator (37°C, 5% CO2).
(§2) At least 4 h before the beginning of the baseline measurements, a full medium exchange was performed (to a final volume of 400 µL per well). Neat compounds were dissolved in 100% DMSO at a stock concentration 1000-fold the highest target concentration. […] Afterwards, these stock solutions were diluted with Maintenance medium (CDi), to 10-fold the intended concentration. The final DMSO concentration in test solutions and vehicle control was 0.1%.
(§3) Spontaneous electrical activity was recorded in hiPSC-CMs monolayers as field potentials using the Maestro Pro MEA instrument (Axion Biosystems, Atlanta, GA, United States), which allows the maintenance of accurate temperature and CO2 levels (37°C, 5% CO2). After the plate was placed in the Maestro Pro and allowed to equilibrate for about 10 min, baseline acquisition of field potential and impedance signals was initiated and lasted for 5 min each. […] As impedance measures resistance of an applied alternating current through the hiPSC-CMs monolayer, a reduction in the attachment of hiPSC-CMs to the bottom of the well due to cell death or changes in the monolayer morphology, causes a drop in the impedance signal.
The potential presence of various arrhythmic events was evaluated and noted during the data analysis.
(§4) After the acquisition of all timepoint measurements, raw data were loaded into the data analysis software Axion Cardiac Analysis Tool (V.3.2.3). […] A.csv file containing information on the FP parameters per well, per time point, was then generated and used as input to the in-house data management system (SPEcII v.3.4, Unlimit-IT, Geel, Belgium), where descriptive statistics were calculated. Summary values at different time points after compound addition are expressed as percent change from baseline and shown as mean ± standard deviation (SD).
(§5) The nonparametric Wilcoxon-Mann Whitney Test was used to compare the percent change from the baseline (Δ%) value between the group treated with the compound at a given concentration and the group treated with the DMSO at each matching time points. A two-sided test at 5% significance level was considered. […] To assess the physiological relevance of changes, a tolerance interval of DMSO experiments was calculated at each time point, for each parameter. […] TIs indicate an interval where, with a certain confidence level (1- α = 0.95), a specified proportion (p = 0.80) of percent change for DMSO data falls. The lower and upper limits based on the TI values were used as cut-offs for the interpretation of the changes. For the cytotoxicity assays, measurements of fluorescence (after background fluorescence subtraction) from wells treated with the compounds were normalized by the average value of vehicle experiments (DMSO 0.1%) to obtain a DMSO-corrected, delta/delta percent change. Experiments from each condition, as delta/delta percent, were averaged and expressed as mean ± SD. Statistical analysis was performed using a non-parametric test (Kruskal-Wallis) and each treatment condition was compared to the relative DMSO 0.1%. Differences were considered statistically significant when the p-value was smaller than 0.05.

[2] = system: hiPSC-CMs (iCell-Cardiomyocytes^2); test: MEA impedance (cytotoxicity readout) in hiPSC-CMs
Procedure: as §1, §2, §3, §4, §5

[3] = free therapeutic Cmax in humans; ref FDA-approved drug packages, PharmaPendium; cited from earlier work

BR (beating rate), % change from baseline ([1]; 1 µM, 2h): 8±1%
FPD (field-potential duration), % change from baseline ([1]; 1 µM, 2h): -1±2.2%
FPDc (field-potential duration corrected by beat-rate), % change from baseline ([1]; 1 µM, 2h): 1.6±2.2%
BR (beating rate), % change from baseline ([1]; 1 µM, 24h): 16±2%
FPD (field-potential duration), % change from baseline ([1]; 1 µM, 24h): -2.8±1.5%
FPDc (field-potential duration corrected by beat-rate), % change from baseline ([1]; 1 µM, 24h): 2.1±1.1%
BR (beating rate), % change from baseline ([1]; 1 µM, 48h): 3±2%
FPD (field-potential duration), % change from baseline ([1]; 1 µM, 48h): 4.3±3%
FPDc (field-potential duration corrected by beat-rate), % change from baseline ([1]; 1 µM, 48h): 5.3±2.8%
BR (beating rate), % change from baseline ([1]; 1 µM, 72h): -2±3%
FPD (field-potential duration), % change from baseline ([1]; 1 µM, 72h): 8.1±4.8%
FPDc (field-potential duration corrected by beat-rate), % change from baseline ([1]; 1 µM, 72h): 7±3.6%
BR (beating rate), % change from baseline ([1]; 1 µM, 96h): -21±2 %
FPD (field-potential duration), % change from baseline ([1]; 1 µM, 96h): 16.9±3%
FPDc (field-potential duration corrected by beat-rate), % change from baseline ([1]; 1 µM, 96h): 8.1±2%
BR (beating rate), % change from baseline ([1]; 3 µM, 72h): -4±3%
FPD (field-potential duration), % change from baseline ([1]; 3 µM, 72h): 9.6±3.7%
FPDc (field-potential duration corrected by beat-rate), % change from baseline ([1]; 3 µM, 72h): 8.4±2.9%
BR (beating rate), % change from baseline ([1]; 3 µM, 96h): -20±4 %
FPD (field-potential duration), % change from baseline ([1]; 3 µM, 96h): 18.2±7.7%
FPDc (field-potential duration corrected by beat-rate), % change from baseline ([1]; 3 µM, 96h): 9.6±6.7%
BR (beating rate), % change from baseline ([1]; 3 µM, 2h): 8±1%
FPD (field-potential duration), % change from baseline ([1]; 3 µM, 2h): 0.7±2.8%
FPDc (field-potential duration corrected by beat-rate), % change from baseline ([1]; 3 µM, 2h): 3.1±2.9%
BR (beating rate), % change from baseline ([1]; 3 µM, 24h): 16±3%
FPD (field-potential duration), % change from baseline ([1]; 3 µM, 24h): -2.7±2.9%
FPDc (field-potential duration corrected by beat-rate), % change from baseline ([1]; 3 µM, 24h): 2.3±2.9%
BR (beating rate), % change from baseline ([1]; 3 µM, 48h): 2±2%
FPD (field-potential duration), % change from baseline ([1]; 3 µM, 48h): 5.1±3.9%
FPDc (field-potential duration corrected by beat-rate), % change from baseline ([1]; 3 µM, 48h): 5.7±3.9%
BR (beating rate), % change from baseline ([1]; 10 µM, 2h): 8±3%
FPD (field-potential duration), % change from baseline ([1]; 10 µM, 2h): 0.5±3.7%
FPDc (field-potential duration corrected by beat-rate), % change from baseline ([1]; 10 µM, 2h): 3±3.1%
BR (beating rate), % change from baseline ([1]; 10 µM, 24h): 18±6 %
FPD (field-potential duration), % change from baseline ([1]; 10 µM, 24h): -3.1±4.9%
FPDc (field-potential duration corrected by beat-rate), % change from baseline ([1]; 10 µM, 24h): 2.2±3.9%
BR (beating rate), % change from baseline ([1]; 10 µM, 48h): 3±4%
FPD (field-potential duration), % change from baseline ([1]; 10 µM, 48h): 6.6±2.8%
FPDc (field-potential duration corrected by beat-rate), % change from baseline ([1]; 10 µM, 48h): 7.4±2.1%
BR (beating rate), % change from baseline ([1]; 10 µM, 72h): -1±8%
FPD (field-potential duration), % change from baseline ([1]; 10 µM, 72h): 9.6±7.3%
FPDc (field-potential duration corrected by beat-rate), % change from baseline ([1]; 10 µM, 72h): 8.9±4.3%
BR (beating rate), % change from baseline ([1]; 10 µM, 96h): -19±5 %
FPD (field-potential duration), % change from baseline ([1]; 10 µM, 96h): 18.3±5.7%
FPDc (field-potential duration corrected by beat-rate), % change from baseline ([1]; 10 µM, 96h): 10.4±4.4%
BR (beating rate), % change from baseline ([1]; 30 µM, 2h): 5±4%
FPD (field-potential duration), % change from baseline ([1]; 30 µM, 2h): -0.1±3.5%
FPDc (field-potential duration corrected by beat-rate), % change from baseline ([1]; 30 µM, 2h): 1.6±2.8%
BR (beating rate), % change from baseline ([1]; 30 µM, 24h): 15±6%
FPD (field-potential duration), % change from baseline ([1]; 30 µM, 24h): -4.2±3.4%
FPDc (field-potential duration corrected by beat-rate), % change from baseline ([1]; 30 µM, 24h): 0.5±2.7%
BR (beating rate), % change from baseline ([1]; 30 µM, 48h): 1±5%
FPD (field-potential duration), % change from baseline ([1]; 30 µM, 48h): 5.6±1.7%
FPDc (field-potential duration corrected by beat-rate), % change from baseline ([1]; 30 µM, 48h): 6±2.2%
BR (beating rate), % change from baseline ([1]; 30 µM, 72h): -3±8%
FPD (field-potential duration), % change from baseline ([1]; 30 µM, 72h): 8.8±5.4%
FPDc (field-potential duration corrected by beat-rate), % change from baseline ([1]; 30 µM, 72h): 7.7±3.8%
BR (beating rate), % change from baseline ([1]; 30 µM, 96h): -20±4 %
FPD (field-potential duration), % change from baseline ([1]; 30 µM, 96h): 16.4±1.3%
FPDc (field-potential duration corrected by beat-rate), % change from baseline ([1]; 30 µM, 96h): 7.9±2.1%
SMILES: CC1(C)S[C@@H]2[C@H](NC(=O)[C@H](N)c3ccc(O)cc3)C(=O)N2[C@H]1C(=O)O [Amoxicillin]
Imp (impedance), % change from baseline ([2]; 1 µM, 2h): 2±4%
Imp (impedance), % change from baseline ([2]; 1 µM, 24h): 9±7%
Imp (impedance), % change from baseline ([2]; 1 µM, 48h): -2±4%
Imp (impedance), % change from baseline ([2]; 1 µM, 72h): 4±3 %
Imp (impedance), % change from baseline ([2]; 1 µM, 96h): 0±8%
Imp (impedance), % change from baseline ([2]; 3 µM, 72h): 1±4%
Imp (impedance), % change from baseline ([2]; 3 µM, 96h): -2±6%
Imp (impedance), % change from baseline ([2]; 3 µM, 2h): 2±3%
Imp (impedance), % change from baseline ([2]; 3 µM, 24h): 7±6%
Imp (impedance), % change from baseline ([2]; 3 µM, 48h): -3±6%
Imp (impedance), % change from baseline ([2]; 10 µM, 2h): 2±3%
Imp (impedance), % change from baseline ([2]; 10 µM, 24h): 7±6%
Imp (impedance), % change from baseline ([2]; 10 µM, 48h): -2±3%
Imp (impedance), % change from baseline ([2]; 10 µM, 72h): 1±4%
Imp (impedance), % change from baseline ([2]; 10 µM, 96h): -1±6%
Imp (impedance), % change from baseline ([2]; 30 µM, 2h): 2±3%
Imp (impedance), % change from baseline ([2]; 30 µM, 24h): 2±4%
Imp (impedance), % change from baseline ([2]; 30 µM, 48h): -1±3%
Imp (impedance), % change from baseline ([2]; 30 µM, 72h): -6±4%
Imp (impedance), % change from baseline ([2]; 30 µM, 96h): -4±5%
Free Cmax [3]: 16.1 µM
